Among the data in patent publication US9192619B2 (Peking University Third Hospital, priority 2010, dated 2015) are Infarction percentages values, retold here.

Structures are written as SMILES. “And” between values parts separate entries of the source, which are not always exact repeats. Equal entries are not always repeated.

The test system of the assay is permanent focal cerebral ischemia model (MCAO). The experiment in a line: Permanent focal cerebral ischemia model by middle cerebral artery occlusion (MCAO), infarction size by TTC staining of brain slices. Format: in vivo, Sprague Dawley rats. The conditions noted are these: single rats, 12 h ischemia. The procedure:
Experimental conditions: Sprague Dawley rats weighing about 250-300 g with a brain tissue volume of 1.5 mL were used. The subjects were divided into eight groups, and each group had eight rats. […] Efficacy validation: two hours after ECS administration and one hour after intraperitoneal injection, a permanent focal cerebral ischemia model was made by middle cerebral artery occlusion (MCAO). The brains of rats from each group were removed 12 hours after cerebral ischemia. The brain slices were obtained by cutting the brain at every 2 mm (5 slices from each rat). Then the slices were stained with 2,3,5-triphenyl-2H-tetrazolium chloride (TTC) for evaluating the cerebral infarction size and the effectiveness of administration of the drug via ECS.

As for `C[N+](C)(C)CCOP(=O)(O)OP(=O)([O-])OC[C@H]1O[C@@H](n2ccc(N)nc2=O)[C@H](O)[C@@H]1O` [CDPC, citicoline], the Infarction percentages was 33.7% and 5.6% and 18.6% and 34.1% and 38.1% and 42% and 24.9% and 22.8% (CDPC 25 mM via brain ECS (caudate nucleus), 0.2 μL/min, 2 μL, MCAO 2 h after administration); 2.3% and 6.7% and 2.2% and 2.9% and 6.9% and 3.6% (2×) and 5.3% (CDPC 40 mM via brain ECS, 0.2 μL/min, 2 μL, MCAO 2 h after administration); 1.3% and 5.7% and 3% and 1.7% and 3.7% and 4.8% and 5% and 7.3% (CDPC 50 mM via brain ECS, 0.2 μL/min, 2 μL, MCAO 2 h after administration); 2.3% and 3.7% and 3.6% and 1.7% and 6.7% and 8.8% and 3.5% and 4.2% (CDPC 60 mM via brain ECS, 0.2 μL/min, 2 μL, MCAO 2 h after administration); 31.2% and 35.8% and 4.0% and 37.8% and 16.1% and 29.8% (CDPC 75 mM via brain ECS, 0.2 μL/min, 2 μL, MCAO 2 h after administration); 29.1% and 35.9% and 20.7% and 8.1% and 38.8% and 20.6% and 11.5% and 41.6% (CDPC 100 mM via brain ECS, 0.2 μL/min, 2 μL, MCAO 2 h after administration). Also, the Infarction percentages was 24.8% and 51.2% and 14.8% and 20% and 26.7% and 18.1% and 48.3% and 33.4% (CDPC 245 mM via brain ECS, 0.2 μL/min, 2 μL, MCAO 2 h after administration); 30.6% and 26.4% and 10.7% and 5.2% and 25.5% and 27.0% and 33.9% and 32.3% (CDPC 1000 mM intraperitoneal, 1 mL (about 4 mL/kg), 1 mL/min, MCAO 1 h after administration).
